# Values of other authors as cited in patent US10918604B2, “Solid oral dosage forms of eslicarbazepine” (Jubilant Generics Limited, priority 2015, dated 2021).
# Settings: reported in background
smiles,measurement,value
"CC(=O)O[C@H]1Cc2ccccc2N(C(N)=O)c2ccccc21 [Eslicarbazepine acetate, (S)-10-acetoxy-10,11-dihydro-5H-dibenzo[b,f]azepine-5-carboxamide]",solubility in water,poorly soluble in water
